Measurements taken from US20070110818A1, “Milk fractions and milk preparations for treating and/or preventing cox-2 mediated diseases” (priority 2003, published 2007).

Biological target: T1, COX-2 (Homo sapiens, UniProt P35354)
T1 construct: treated with 100 nM (nmol/l) phorbol 12-myristate 13-acetate for 6 h at 37° C. to induce COX-2 isoenzyme; endogenous in cells; host or cells: HUV-EC-C (ATCC CRL1730), PMA-induced
T1 sequence (P35354 18-604): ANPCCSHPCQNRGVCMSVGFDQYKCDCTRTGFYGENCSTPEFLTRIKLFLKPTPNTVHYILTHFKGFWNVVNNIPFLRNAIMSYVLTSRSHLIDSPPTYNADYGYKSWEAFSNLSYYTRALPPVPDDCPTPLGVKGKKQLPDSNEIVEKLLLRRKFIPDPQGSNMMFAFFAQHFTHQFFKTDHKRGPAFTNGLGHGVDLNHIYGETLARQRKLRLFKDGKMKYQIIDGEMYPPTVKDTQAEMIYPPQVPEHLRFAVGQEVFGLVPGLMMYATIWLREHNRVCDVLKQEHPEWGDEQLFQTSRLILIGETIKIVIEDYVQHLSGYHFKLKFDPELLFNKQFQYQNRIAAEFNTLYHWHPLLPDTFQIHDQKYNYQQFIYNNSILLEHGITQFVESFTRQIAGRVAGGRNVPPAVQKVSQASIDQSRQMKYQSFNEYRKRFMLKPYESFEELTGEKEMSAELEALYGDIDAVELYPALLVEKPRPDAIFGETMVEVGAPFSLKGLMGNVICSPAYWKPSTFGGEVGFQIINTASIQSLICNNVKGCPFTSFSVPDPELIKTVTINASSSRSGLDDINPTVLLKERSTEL
Test: COX-2 screening in PMA-induced HUV-EC-C cells (Prostaglandine-E2 production by RIA)
Format: cell-based
Description: HUV-EC-C cells (a permanent endothelial cell line derived from the vein of a normal human umbilical cord; ATCC CRL1730; M. Miralpeix, M. Camacho et al., Brit. J. Pharmacol. 121 (1997), 171-180), were seeded onto 96-well plates (RPMI 1640+10% FCS) and treated with 100 nM (nmol/l) phorbol 12-myristate 13-acetate for 6 h at 37° C. to induce COX-2 isoenzyme. 50 μM (μmol/l) arachidonic acid were then added and the cells were incubated in the presence of test compounds or mixtures for 30 min at 37° C. Prostaglandine-E2 production was measured by radioimmuno assay (RIA) and the radioactivity determined with a scintillation counter (Topcount, Packard) using a liquid scintillation cocktail (Packard).
The results obtained are expressed as a percent of control values and as a percent inhibition of control values obtained in the presence of the test compounds. The control values correspond to the COX-2 activity of HUV-EC-C cells after stimulation with Phorbol Myristate Acetate (PMA) during 6 hours at 37° C. (can be done also with Tumor Necrosis Factor type alpha: TNFα) in absence of test compound.
The concentration causing a half-maximal inhibition of control values (IC50 value) and Hill coefficients (nH) were determined for the reference compounds (cycloheximide) by nonlinear regression analysis of their inhibition curves. These parameters were obtained by Hill equation curve fitting. […]

## N[C@@H](CS)C(=O)O [Cysteine]
  cyclooxygenase-2 inhibiting activity (in words): no effect
